# pIC50: −log10 of the molar value.
# Molecular target: T1, Human FXa (Homo sapiens, UniProt P00742)
# T1 construct: purchased Enzyme Research Laboratories, Inc
# Experiment: Measuring human FXa inhibitory action (chromogenic substrate S-2222)
# Assay type: biochemical
# Conditions: Human FXa 0.019 U/ml, S-2222 0.4 mM, Tris-HCl buffer (pH 7.5), 37 °C, absorbance at 405 nm
# Procedure: The outstanding FXa inhibitory activity of the compounds of the present invention can be verified by the following tests. 1) Measurement of Enzyme Inhibitory Action a) Measuring human FXa inhibitory action In vitro FXa inhibitory activity is measured in accordance with the method of Kettner et al., J. Biol. Chem., 1990, 265, 18289-18297. Human FXa (Enzyme Research Laboratories, Inc., 0.019 U/ml) is mixed with a test compound diluted with dimethyl sulfoxide (DMSO) at various concentrations and a synthesis substrate S-2222 (Chromogenix AB, 0.4 mM) and incubated in a Tris-HCl buffer (pH 7.5) at 37 °C while the absorbance at 405 nm is measured continuously. To calculate the FXa inhibitory activity of the test cmpound, the initial reaction velocity is compared with the value for a control containing no test compound. The FXa inhibitory activity of a test compound is usually expressed as IC50. The compounds of the present invention were measured for their FXa inhibitory activity by the above-described method and they had potencies between 1 nM and 1µm in terms of IC50. […]
# T1 sequence (P00742 235-488 limits assumed): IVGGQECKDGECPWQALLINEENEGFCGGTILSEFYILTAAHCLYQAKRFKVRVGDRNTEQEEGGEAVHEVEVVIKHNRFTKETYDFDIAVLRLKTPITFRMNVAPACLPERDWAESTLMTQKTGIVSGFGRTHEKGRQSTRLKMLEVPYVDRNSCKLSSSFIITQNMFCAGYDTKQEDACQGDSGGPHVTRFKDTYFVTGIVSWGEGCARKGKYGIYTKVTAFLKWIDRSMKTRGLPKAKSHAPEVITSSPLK
# T1 sequence (P00742 41-179 partner limits assumed): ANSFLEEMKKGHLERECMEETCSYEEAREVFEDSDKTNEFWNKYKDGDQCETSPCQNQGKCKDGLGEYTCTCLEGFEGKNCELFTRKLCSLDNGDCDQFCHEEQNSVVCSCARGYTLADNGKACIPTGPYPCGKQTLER
row,Structure (SMILES),pIC50
1,"O=C(C1CCN(c2ccncc2)CC1)N1CCN(S(=O)(=O)/C=C/c2ccc(Cl)cc2)CC1 [Control, 1-((E)-4-chlorostyrylsulfonyl)-4-[1-(4-pyridyl)piperidin-4-ylcarbonyl]piperazine, reference compound]",6.82
2,"CCOC(=O)C1CN(S(=O)(=O)c2ccc3cc(Cl)ccc3c2)CC(=O)N1CC1CCN(c2ccncc2)CC1 (stereo not drawn) [Example 39, 4-(6-chloronaphthalen-2-ylsulfonyl)-6-ethoxycarbonyl-1-[1-(4-pyridyl)piperidin-4-ylmethyl]piperazin-2-one]",7.72
3,"O=C(O)C1CN(S(=O)(=O)c2ccc3cc(Cl)ccc3c2)CC(=O)N1CC1CCN(c2ccncc2)CC1 (stereo not drawn) [Example 40, 6-carboxy-4-(6-chloronaphthalen-2-ylsulfonyl)-1-[1-(4-pyridyl)piperidin-4-ylmethyl]piperazin-2-one]",8.13
4,NC(=O)C1CN(S(=O)(=O)c2ccc3cc(Cl)ccc3c2)CC(=O)N1CC1CCN(c2ccncc2)CC1 (stereo not drawn) [Example 46],7.77
5,"O=C1CN(S(=O)(=O)c2ccc3cc(Cl)ccc3c2)CC(C=NO)N1CC1CCN(c2ccncc2)CC1 (stereo not drawn) [Example 47, 6-aldoximyl-4-(6-chloronaphthalen-2-ylsulfonyl)-1-[1-(4-pyridyl)piperidin-4-ylmethyl]piperazin-2-one]",7.89
6,"NCC1CN(S(=O)(=O)c2ccc3cc(Cl)ccc3c2)CC(=O)N1CC1CCN(c2ccncc2)CC1 (stereo not drawn) [Example 52, 6-aminomethyl-4-(6-chloronaphthalen-2-ylsulfonyl)-1-[1-(4-pyridyl)piperidin-4-ylmethyl]piperazin-2-one]",7.92

# The remaining lines, values ahead:
row,pIC50,Structure (SMILES)
1,8.07,"CN(C)CC1CN(S(=O)(=O)c2ccc3cc(Cl)ccc3c2)CC(=O)N1CC1CCN(c2ccncc2)CC1 (stereo not drawn) [Example 54, 4-(6-chloronaphthalen-2-ylsulfonyl)-6-dimethylaminomethyl-1-[1-(4-pyridyl)piperidin-4-ylmethyl]piperazin-2-one]"
2,8.13,"CC(=O)NCC1CN(S(=O)(=O)c2ccc3cc(Cl)ccc3c2)CC(=O)N1CC1CCN(c2ccncc2)CC1 (stereo not drawn) [Example 55, 6-acetamidomethyl-4-(6-chloronaphthalen-2-ylsulfonyl)-1-[1-(4-pyridyl)piperidin-4-ylmethyl]piperazin-2-one]"
3,7.80,"CCOC(=O)[C@H]1CN(S(=O)(=O)c2ccc3cc(Cl)ccc3c2)CC(=O)N1CC1CCN(c2ccncc2)CC1 [Example 60, (R)-4-(6-chloronaphthalen-2-ylsulfonyl)-6-ethoxycarbonyl-1-[1-(4-pyridyl)piperidin-4-ylmethyl]piperazin-2-one]"
4,7.15,"CCOC(=O)[C@@H]1CN(S(=O)(=O)c2ccc3cc(Cl)ccc3c2)CC(=O)N1CC1CCN(c2ccncc2)CC1 [Example 61, (S)-4-(6-chloronaphthalen-2-ylsulfonyl)-6-ethoxycarbonyl-1-[1-(4-pyridyl)piperidin-4-ylmethyl]piperazin-2-one]"

# Test system: rat plasma
# Experiment: Measuring extrinsic coagulation time (PT) in vitro in rat plasma
# Conditions: 37°C 3 minutes, thromboplastin reagent, concentration required to double the coagulation time
# Procedure: The compounds synthesized in the Examples of the present invention had FXa inhibitory activities at least equal to that of the control compound. 2) Measurement of Anticoagulation Activity (in vitro) a) Measuring extrinsic coagulation time Thromboplastin time (PT) is measured in the presence of test compounds diluted at various concentrations. A test compound diluted with DMSO at various concentrations is mixed with rat plasma and incubated at 37°C for 3 minutes. Then, a thromboplastin reagent is added and the coagulation time is measured. The anticoagulation activity of the test compound is indicated in terms of the concentration required to double the coagulation time for the case where no test compound is added. […]
row,Structure (SMILES),PT Doubling Concentration [µM]
1,"CCOC(=O)C1CN(S(=O)(=O)c2ccc3cc(Cl)ccc3c2)CC(=O)N1CC1CCN(c2ccncc2)CC1 (stereo not drawn) [Example 39, 4-(6-chloronaphthalen-2-ylsulfonyl)-6-ethoxycarbonyl-1-[1-(4-pyridyl)piperidin-4-ylmethyl]piperazin-2-one]",2.8
2,"O=C(O)C1CN(S(=O)(=O)c2ccc3cc(Cl)ccc3c2)CC(=O)N1CC1CCN(c2ccncc2)CC1 (stereo not drawn) [Example 40, 6-carboxy-4-(6-chloronaphthalen-2-ylsulfonyl)-1-[1-(4-pyridyl)piperidin-4-ylmethyl]piperazin-2-one]",2.7

# Source: patent EP1048652A1, “AROMATIC COMPOUNDS HAVING CYCLIC AMINO OR SALTS THEREOF” (MOCHIDA PHARMACEUTICAL CO., LTD., priority 1997, dated 1999)
